In patent US8124580B2, “Apolipoprotein A1 mimetics and uses thereof” (Trustees of Tufts College, priority 2004, dated 2012):
“Also recorded” adds a separate entry of the source. [ ]: non-standard residue; d: D form.

Key:
[1] = Association with DMPC phospholipid, gel filtration chromatography; assay type: binding; details: FIGS. 2A-D
Excerpt: To assess the ability of purified Rev-D4F to interact with phospholipids, the purified peptidomimetic was mixed with 1,2-dimyristoyl-sn-glycero-3-phosphocholine (DMPC), which is a component of membrane lipid bi-layer with which cholesterol is associated, and fractionated by gel filtration chromatography.

[2] = test system: LDL-induced monocyte chemotactic activity; details: previously shown; cited from earlier work
[3] = test system: lipid peroxidation caused by copper(II) sulfate; test: Lipid peroxidation caused by copper(II) sulfate (TBARS); assay type: biochemical; details: copper(II) sulfate as oxidant, FIG. 6
Excerpt: (§1) The present study measured the ability of Rev-D4F, D-4F, and L-4F mimetic peptides to inhibit lipid peroxidation caused by human aortic endothelial cells and copper(II) sulfate, based upon inhibiting an increase in concentrations of thiobarbituric acid-reactive substances (TBARS).

[4] = test system: apoE-null mice; test: Atherosclerosis in apoE-null mice, oral in drinking water; assay type: in vivo; details: aortic root, 1.6 mg/day orally, 6 weeks; for decrease in lesion area as compared to water control: p<0.02
Experimental: In this study, the comparative effect of Rev-D4F, D-4F, and L-4F mimetic peptides on atherosclerosis in apoE-null mice was measured. Four groups of apoE-null mice (4 weeks old, n=15) were fed a chow diet, and administered water (control), Rev-D4F, D-4F, or L-4F mimetic peptides (1.6 mg/day, n=12/group) orally in drinking water for 6 weeks. Quantitative morphometry of aortic root cross sections stained with oil-red O was performed with NIH software.

[5] = biological target: T1, Scavenger receptor class B type I (SR-BI) (Homo sapiens, UniProt Q8WTV0); test: SR-BI-dependent cholesterol efflux from SR-BI-transfected cells; assay type: cell-based
T1 construct: expressed in transfected cells
T1 sequence (Q8WTV0 1-509 isoform Q8WTV0-2): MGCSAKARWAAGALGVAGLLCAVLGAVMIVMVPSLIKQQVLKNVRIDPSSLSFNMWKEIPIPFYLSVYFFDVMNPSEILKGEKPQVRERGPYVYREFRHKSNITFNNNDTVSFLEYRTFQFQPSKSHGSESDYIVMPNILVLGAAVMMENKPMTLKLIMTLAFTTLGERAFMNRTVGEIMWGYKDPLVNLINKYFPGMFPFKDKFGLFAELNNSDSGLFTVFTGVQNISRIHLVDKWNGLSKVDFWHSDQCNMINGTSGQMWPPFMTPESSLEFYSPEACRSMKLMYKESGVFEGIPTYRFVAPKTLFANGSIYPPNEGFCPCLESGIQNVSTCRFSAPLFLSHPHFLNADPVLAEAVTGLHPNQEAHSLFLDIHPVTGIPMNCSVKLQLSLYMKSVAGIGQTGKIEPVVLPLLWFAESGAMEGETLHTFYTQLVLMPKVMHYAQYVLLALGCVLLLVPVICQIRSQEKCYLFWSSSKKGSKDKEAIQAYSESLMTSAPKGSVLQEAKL
Experimental: (§2) The effect of Rev-D4F on the cholesterol efflux in a […] was examined. Scavenger receptor class B type I (“SR-BI”) is a receptor for HDL normally expressed on the surface of the liver cells. Tritiated cholesterol was added to cells transfected with SR-BI, with wild type Apo A-I, L4F peptide, D4F peptide, or Rev-D4F peptidomimetic, and the percentage of cholesterol efflux was determined.

[6] = test system: monocyte chemotactic protein-1 (MCP-1) mRNA; test: MCP-1 mRNA expression in endothelial cells; assay type: cell-based
Excerpt: This study analyzed the effects of Rev-D4F, D-4F, and L-4F mimetic peptides to reduce the levels of an […] marker, monocyte chemotactic protein-1 (MCP-1). Based upon levels of MCP-1 mRNA, all three peptidomimetics reduced the amount of MCP-1.

[7] = test system: LDL; details: cited from earlier work; for LDL oxidation: previously shown
[8] = test system: human aortic endothelial cells; test: Lipid peroxidation caused by human aortic endothelial cells (TBARS); assay type: cell-based; details: FIG. 5; for lipid peroxidation (TBARS) caused by endothelial cells: human aortic endothelial cells as oxidant
Excerpt: as §1

[9] = biological target: T2, ATP-binding cassette protein A1 (ABCA1) (Homo sapiens, UniProt O95477); test: ABCA1-dependent cholesterol efflux from ABCA1-transfected cells; assay type: cell-based
T2 construct: expressed in transfected cells
Experimental: as §2
The effect of Rev-D4F on the cholesterol efflux in a manner dependent on ATP-binding cassette protein A1 (“ABCA1”) was also examined using the same methodology as for SR-BI, except that ABCA1 was transfected.

[10] = in vivo; cited from earlier work
[11] = test system: LDL receptor-null mice; details: oral administration; cited from earlier work

T2 sequence (O95477 whole entry, species assumed): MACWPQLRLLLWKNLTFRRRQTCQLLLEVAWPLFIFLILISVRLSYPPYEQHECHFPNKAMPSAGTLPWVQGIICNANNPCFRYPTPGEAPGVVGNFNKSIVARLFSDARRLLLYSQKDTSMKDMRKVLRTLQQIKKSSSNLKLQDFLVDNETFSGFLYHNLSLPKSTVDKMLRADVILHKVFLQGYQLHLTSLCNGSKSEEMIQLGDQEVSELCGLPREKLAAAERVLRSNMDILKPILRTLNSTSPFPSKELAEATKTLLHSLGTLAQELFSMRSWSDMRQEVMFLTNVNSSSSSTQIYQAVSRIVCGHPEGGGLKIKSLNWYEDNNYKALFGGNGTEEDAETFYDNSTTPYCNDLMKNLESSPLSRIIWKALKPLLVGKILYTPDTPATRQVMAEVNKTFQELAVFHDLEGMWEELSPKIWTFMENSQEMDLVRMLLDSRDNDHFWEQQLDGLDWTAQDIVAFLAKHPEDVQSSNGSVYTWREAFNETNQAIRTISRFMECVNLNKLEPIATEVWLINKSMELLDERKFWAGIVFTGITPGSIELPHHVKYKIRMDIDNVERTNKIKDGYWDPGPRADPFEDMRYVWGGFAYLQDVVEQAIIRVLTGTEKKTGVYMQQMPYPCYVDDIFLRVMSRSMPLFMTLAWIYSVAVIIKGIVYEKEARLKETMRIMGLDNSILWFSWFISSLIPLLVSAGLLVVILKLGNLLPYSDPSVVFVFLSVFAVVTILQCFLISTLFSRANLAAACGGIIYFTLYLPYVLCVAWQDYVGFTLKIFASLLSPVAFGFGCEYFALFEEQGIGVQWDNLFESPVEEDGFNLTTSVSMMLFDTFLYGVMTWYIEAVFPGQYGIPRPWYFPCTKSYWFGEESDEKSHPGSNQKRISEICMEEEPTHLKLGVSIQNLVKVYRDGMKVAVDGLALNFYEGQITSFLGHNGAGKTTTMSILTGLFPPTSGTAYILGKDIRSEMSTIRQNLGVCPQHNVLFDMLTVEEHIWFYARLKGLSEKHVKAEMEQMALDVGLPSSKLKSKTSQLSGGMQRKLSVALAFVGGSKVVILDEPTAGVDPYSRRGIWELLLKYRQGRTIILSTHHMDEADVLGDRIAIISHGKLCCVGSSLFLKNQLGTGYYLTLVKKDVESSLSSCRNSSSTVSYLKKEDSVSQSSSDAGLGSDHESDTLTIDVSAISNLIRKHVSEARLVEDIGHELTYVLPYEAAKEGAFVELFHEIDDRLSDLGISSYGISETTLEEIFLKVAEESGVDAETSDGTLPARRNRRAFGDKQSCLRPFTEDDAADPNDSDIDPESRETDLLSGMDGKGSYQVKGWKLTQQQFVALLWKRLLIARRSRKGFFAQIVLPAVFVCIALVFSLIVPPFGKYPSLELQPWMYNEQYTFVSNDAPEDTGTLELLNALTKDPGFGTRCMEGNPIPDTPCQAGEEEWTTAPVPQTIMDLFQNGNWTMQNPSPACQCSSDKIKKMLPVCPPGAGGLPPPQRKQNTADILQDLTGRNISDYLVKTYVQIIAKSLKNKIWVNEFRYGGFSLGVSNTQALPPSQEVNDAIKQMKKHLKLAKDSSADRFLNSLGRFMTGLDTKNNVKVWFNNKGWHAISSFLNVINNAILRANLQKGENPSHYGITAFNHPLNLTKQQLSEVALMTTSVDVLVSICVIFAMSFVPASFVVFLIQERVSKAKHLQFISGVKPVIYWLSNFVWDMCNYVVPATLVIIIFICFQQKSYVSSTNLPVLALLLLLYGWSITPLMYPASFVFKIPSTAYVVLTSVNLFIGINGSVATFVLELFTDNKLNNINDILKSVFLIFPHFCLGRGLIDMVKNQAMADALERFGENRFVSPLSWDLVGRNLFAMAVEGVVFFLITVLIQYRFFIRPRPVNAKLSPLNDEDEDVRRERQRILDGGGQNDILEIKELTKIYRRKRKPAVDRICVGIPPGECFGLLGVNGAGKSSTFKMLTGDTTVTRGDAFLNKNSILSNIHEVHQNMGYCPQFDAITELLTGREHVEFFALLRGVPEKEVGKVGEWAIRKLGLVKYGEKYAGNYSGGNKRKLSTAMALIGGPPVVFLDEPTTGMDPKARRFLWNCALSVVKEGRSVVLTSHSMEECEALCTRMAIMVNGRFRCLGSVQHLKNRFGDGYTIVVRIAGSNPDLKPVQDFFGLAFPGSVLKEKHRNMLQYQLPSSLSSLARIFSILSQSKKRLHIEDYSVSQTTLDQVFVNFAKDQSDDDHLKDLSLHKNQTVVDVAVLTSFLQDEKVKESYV

Substance | spontaneous association with DMPC (co-elution with phospholipid) [1] | LDL-induced monocyte chemotactic activity [2] | lipid peroxidation (TBARS) caused by copper sulfate [3] | effect on atherosclerotic lesions [4] | efficiency in promoting SR-BI-dependent cholesterol efflux compared to Apo A-I ([5]; per mole basis) | efficiency in promoting SR-BI-dependent cholesterol efflux compared to Apo A-I ([5]; per weight basis) | MCP-1 mRNA level ([6]; FIG. 7) | LDL and phospholipid oxidation ([7]; mechanisms independent of HDL-mediated processes) | LDL oxidation [7] | lipid peroxidation (TBARS) caused by endothelial cells [8] | efficiency in promoting ABCA1-dependent cholesterol efflux compared to Apo A-I ([9]; per mole basis) | efficiency in promoting ABCA1-dependent cholesterol efflux compared to Apo A-I ([9]; per weight basis) | inhibition in lipid peroxidation compared with D-4F [3] | lipid peroxidation (TBARS) caused by copper sulfate ([3]; listed as Rev D-4-F) | decrease in lesion area as compared to water control [4] | MCP-1 mRNA level ([6]; FIG. 7, listed as Rev D-4-F) | inhibition in lipid peroxidation compared with D-4F ([8]; endothelial cells as oxidant) | lipid peroxidation (TBARS) caused by endothelial cells ([8]; listed as Rev D-4-F) | stability upon oral administration [10] | reduction of atherosclerotic lesions [11]
Apo A-I: the major HDL apoprotein; intact/wild type protein used as comparator | only certain portions | – | – | – | – | – | – | – | – | – | – | – | – | – | – | – | – | – | – | –
Ac-D-W-F-K-A-F-Y-D-K-V-A-E-K-F-K-E-A-F-NH2 [L-4F] (Ac-DWFKAFYDKVAEKFKEAF-NH2) | associated spontaneously | block | significantly decreased; also recorded: inhibit | no effect | less efficient | more efficient | reduced; also recorded: inhibit | inhibits | block | significantly decreased; also recorded: inhibit | less efficient | more efficient | – | – | – | – | – | – | – | –
Ac-F-A-E-K-F-K-E-A-V-K-D-Y-F-A-K-F-W-D-NH2 (Ac-[dF][dA][dE][dK][dF][dK][dE][dA][dV][dK][dD][dY][dF][dA][dK][dF][dW][dD]-NH2; SMILES CC(=O)N[C@H](Cc1ccccc1)C(=O)N[C@H](C)C(=O)N[C@H](CCC(=O)O)C(=O)N[C@H](CCCCN)C(=O)N[C@H](Cc1ccccc1)C(=O)N[C@H](CCCCN)C(=O)N[C@H](CCC(=O)O)C(=O)N[C@H](C)C(=O)N[C@@H](C(=O)N[C@H](CCCCN)C(=O)N[C@H](CC(=O)O)C(=O)N[C@H](Cc1ccc(O)cc1)C(=O)N[C@H](Cc1ccccc1)C(=O)N[C@H](C)C(=O)N[C@H](CCCCN)C(=O)N[C@H](Cc1ccccc1)C(=O)N[C@H](Cc1c[nH]c2ccccc12)C(=O)N[C@H](CC(=O)O)C(N)=O)C(C)C) [Rev-D4F] | associated spontaneously | – | significantly decreased | – | less efficient | more efficient | reduced | – | – | significantly decreased | less efficient | more efficient | significantly greater | inhibit | 46% | inhibit | significantly greater | inhibit | – | –
Ac-D-W-F-K-A-F-Y-D-K-V-A-E-K-F-K-E-A-F-NH2 [D-4F] (Ac-[dD][dW][dF][dK][dA][dF][dY][dD][dK][dV][dA][dE][dK][dF][dK][dE][dA][dF]-NH2) | associated spontaneously | block | significantly decreased; also recorded: inhibit | – | less efficient | more efficient | reduced; also recorded: inhibit | – | block | significantly decreased; also recorded: inhibit | less efficient | more efficient | – | – | 33% | – | – | – | stable | ~80%
